From ChEMBL document CHEMBL6083277, “Discovery of SZJK-0421: A Novel Potent, Low Toxicity, Selective Second Generation of CRM1 Inhibitor for the Treatment of Both Hematological and Solid Tumors” (J Med Chem, 2024)
The source made the active and inactive calls. The rule behind the calls is not given here.

Test system: MM1.S
Test: Antiproliferative activity against human MM1.S cells assessed as inhibition of cell growth incubated for 72 hrs by celltiter-glo assay
Assay type: functional, cell-based

| SMILES | IC50 | Activity |
| --- | --- | --- |
| NC(=O)/C(=C/c1cnn(-c2cc(C(F)(F)F)cc(C(F)(F)F)c2)c1)c1ccc(C(F)(F)F)nc1 | 1340 nM | – |
| NC(=O)/C(=C/c1cnn(-c2cc(C(F)(F)F)cc(C(F)(F)F)c2)c1)c1ccc(F)nc1 | – | inactive |
| Cc1ccc(/C(=C\n2cnc(-c3cc(C(F)(F)F)cc(C(F)(F)F)c3)n2)C(N)=O)cn1 | – | inactive |
| NC(=O)/C(=C/n1ccc(-c2cc(C(F)(F)F)cc(C(F)(F)F)c2)n1)c1ccncc1 | 1430 nM | – |
| CN(C)c1ncc(/C(=C\C(N)=O)c2cnn(-c3cc(C(F)(F)F)cc(C(F)(F)F)c3)c2)cn1 | – | inactive |
| COc1ncc(/C(=C\c2cnn(-c3cc(C(F)(F)F)cc(C(F)(F)F)c3)c2)C(N)=O)cn1 | 2260 nM | – |
| Cc1cn(/C=C(/C(N)=O)c2cncnc2)nc1-c1cc(C(F)(F)F)cc(C(F)(F)F)c1 | – | inactive |
| N#Cc1ccc(/C(=C\n2cnc(-c3cc(C(F)(F)F)cc(C(F)(F)F)c3)n2)C(N)=O)cn1 | 176 nM | – |
| NC(=O)/C=C(\c1cncnc1)c1cnn(-c2cc(C(F)(F)F)cc(C(F)(F)F)c2)c1 | – | inactive |
| COc1ncc(/C(=C\C(N)=O)c2cnn(-c3cc(C(F)(F)F)cc(C(F)(F)F)c3)c2)cn1 | – | inactive |
| NC(=O)/C=C(\c1ccc(F)nc1)c1cnn(-c2cc(C(F)(F)F)cc(C(F)(F)F)c2)c1 | – | inactive |
| CONC(=O)/C(=C/n1cnc(-c2cc(C(F)(F)F)nc(C(F)(F)F)c2)n1)c1ccc(C)nc1 | 207 nM | – |
| CONC(=O)/C(=C/n1cnc(-c2cc(C(F)(F)F)cc(C(F)(F)F)c2)n1)c1ccc(C#N)nc1 | 185 nM | – |
| COc1ncc(/C(=C\n2cnc(-c3cc(C(F)(F)F)cc(C(F)(F)F)c3)n2)C(N)=O)cn1 | 646 nM | – |
| N#Cc1ccc(/C(=C\C(N)=O)c2cnn(-c3cc(C(F)(F)F)cc(C(F)(F)F)c3)c2)cn1 | – | inactive |
| NC(=O)/C(=C/n1cnc(-c2cc(C(F)(F)F)cc(C(F)(F)F)c2)n1)c1ccc(C(F)(F)F)nc1 | 1660 nM | – |
| CONC(=O)/C(=C/n1cnc(-c2cc(C(F)(F)F)cc(C(F)(F)F)c2)n1)c1ccc(C#N)cc1 | 1040 nM | – |
| N#Cc1ccc(/C(=C\c2cnn(-c3cc(C(F)(F)F)cc(C(F)(F)F)c3)c2)C(N)=O)cn1 | 1410 nM | – |
| Cc1ccc(/C(=C\c2cnn(-c3cc(C(F)(F)F)cc(C(F)(F)F)c3)c2)C(N)=O)cn1 | – | inactive |

| SMILES | IC50 | Activity |
| --- | --- | --- |
| NC(=O)/C(=C/n1ccc(-c2cc(C(F)(F)F)cc(C(F)(F)F)c2)n1)c1ccc(C(F)(F)F)nc1 | 1920 nM | – |
| CN(C)c1ncc(/C(=C\n2cnc(-c3cc(C(F)(F)F)cc(C(F)(F)F)c3)n2)C(N)=O)cn1 | 1310 nM | – |
| Cc1ccc(/C(=C\n2cnc(-c3cc(C(F)(F)F)nc(C(F)(F)F)c3)n2)C(N)=O)cn1 | 245 nM | – |
| NC(=O)/C=C(\c1cncc(F)c1)c1cnn(-c2cc(C(F)(F)F)cc(C(F)(F)F)c2)c1 | – | inactive |
| NC(=O)/C(=C/n1cnc(-c2cc(C(F)(F)F)cc(C(F)(F)F)c2)n1)c1c[nH]c2ccccc12 | 313 nM | – |
| CONC(=O)/C(=C/n1cnc(-c2cc(C(F)(F)F)cc(C(F)(F)F)c2)n1)c1ccc(OC)nc1 | 166 nM | – |
| NC(=O)/C=C(\c1ccc(C(F)(F)F)nc1)c1cnn(-c2cc(C(F)(F)F)cc(C(F)(F)F)c2)c1 | – | inactive |
| NC(=O)/C(=C/c1cnn(-c2cc(C(F)(F)F)cc(C(F)(F)F)c2)c1)c1cncnc1 | 1750 nM | – |
| CONC(=O)/C(=C/n1cnc(-c2cc(C(F)(F)F)cc(C(F)(F)F)c2)n1)c1ccsc1 | 990 nM | – |
| CONC(=O)/C(=C/n1cnc(-c2cc(OC(=O)CCNC(=O)CCCC[C@@H]3SC[C@@H]4NC(=O)N[C@@H]43)cc(C(F)(F)F)c2)n1)c1cncnc1 | 1700 nM | – |
| N#Cc1ccc(/C(=C\n2ccc(-c3cc(C(F)(F)F)cc(C(F)(F)F)c3)n2)C(N)=O)cn1 | 880 nM | – |
| CN(C)c1ncc(/C(=C\c2cnn(-c3cc(C(F)(F)F)cc(C(F)(F)F)c3)c2)C(N)=O)cn1 | – | inactive |
| Cc1ccc(/C(=C\C(N)=O)c2cnn(-c3cc(C(F)(F)F)cc(C(F)(F)F)c3)c2)cn1 | – | inactive |
| CONC(=O)/C(=C/n1cnc(-c2cc(C(F)(F)F)cc(C(F)(F)F)c2)n1)c1ccn(C)n1 | 1200 nM | – |
| NC(=O)/C(=C/n1cnc(-c2cc(C(F)(F)F)nc(C(F)(F)F)c2)n1)c1cncnc1 | 226 nM | – |
| NC(=O)/C(=C/c1cnn(-c2cc(C(F)(F)F)cc(C(F)(F)F)c2)c1)c1cncc(F)c1 | 2360 nM | – |
| NC(=O)/C(=C/c1cnn(-c2cc(C(F)(F)F)cc(C(F)(F)F)c2)c1)c1ccncc1 | – | inactive |
| NC(=O)/C=C(\c1ccncc1)c1cnn(-c2cc(C(F)(F)F)cc(C(F)(F)F)c2)c1 | – | inactive |

Further lines, with some results ahead:

| IC50 | SMILES | Activity |
| --- | --- | --- |
| 447 nM | NC(=O)/C(=C/n1cnc(-c2cc(C(F)(F)F)cc(C(F)(F)F)c2)n1)c1cccc2cccnc12 | – |
| 485 nM | CONC(=O)/C(=C/n1cnc(-c2cc(C(F)(F)F)cc(C(F)(F)F)c2)n1)c1cnc(Cl)nc1 | – |
| 332 nM | CC(C)(C)NNC(=O)/C(=C/n1cnc(-c2cc(C(F)(F)F)cc(C(F)(F)F)c2)n1)c1cncnc1 | – |
| 1470 nM | NC(=O)/C(=C/n1cnc(-c2cc(C(F)(F)F)cc(C(F)(F)F)c2)n1)c1ccc(F)nc1 | – |
| 323 nM | O=C(NC12CC3CCC1CC(C3)C2)/C(=C/n1cnc(-c2cc(C(F)(F)F)cc(C(F)(F)F)c2)n1)c1cncnc1 (configuration not stated) | – |
| 1500 nM | O=C(NCc1ccccn1)/C(=C/n1cnc(-c2cc(C(F)(F)F)cc(C(F)(F)F)c2)n1)c1cncnc1 | – |
| 1220 nM | N#Cc1cn(/C=C(/C(N)=O)c2cncnc2)nc1-c1cc(C(F)(F)F)cc(C(F)(F)F)c1 | – |
| 244 nM | CONC(=O)/C(=C/n1cnc(-c2cc(C(F)(F)F)cc(C(F)(F)F)c2)n1)c1cnc(OC)nc1 | – |
| 321 nM | O=C(NC1CCCCCC1)/C(=C/n1cnc(-c2cc(C(F)(F)F)cc(C(F)(F)F)c2)n1)c1cncnc1 | – |
| 189 nM | CNC(=O)/C(=C/n1cnc(-c2cc(C(F)(F)F)cc(C(F)(F)F)c2)n1)c1cncnc1 | – |
| 128 nM | NC(=O)/C(=C/n1cnc(-c2cc(C(F)(F)F)cc(C(F)(F)F)c2)n1)c1ccncc1 | – |
| 75.7 nM | CON(C)C(=O)/C(=C/n1cnc(-c2cc(C(F)(F)F)cc(C(F)(F)F)c2)n1)c1cncnc1 | – |
| 198 nM | CONC(=O)/C(=C/n1cnc(-c2cc(C(F)(F)F)nc(C(F)(F)F)c2)n1)c1cncnc1 | – |
| 328 nM | O=C(NNc1cnccn1)/C(=C/n1cnc(-c2cc(C(F)(F)F)cc(C(F)(F)F)c2)n1)c1cncnc1 | – |
| 202 nM | CONC(=O)/C(=C/n1cnc(-c2cc(C(F)(F)F)cc(C(F)(F)F)c2)n1)c1ccncc1 | – |
| 142 nM | O=C(NC1CCOCC1)/C(=C/n1cnc(-c2cc(C(F)(F)F)cc(C(F)(F)F)c2)n1)c1cncnc1 | – |
| 292 nM | O=C(NC1CCCC1)/C(=C/n1cnc(-c2cc(C(F)(F)F)cc(C(F)(F)F)c2)n1)c1cncnc1 | – |
| 99.3 nM | COC(=O)CNC(=O)/C(=C/n1cnc(-c2cc(C(F)(F)F)cc(C(F)(F)F)c2)n1)c1cncnc1 | – |
| 572 nM | O=C(NC1CCCCC1)/C(=C/n1cnc(-c2cc(C(F)(F)F)cc(C(F)(F)F)c2)n1)c1cncnc1 | – |
| 259 nM | NC(=O)/C(=C/n1cnc(-c2cc(C(F)(F)F)cc(C(F)(F)F)c2)n1)c1cncc(F)c1 | – |
| 1400 nM | O=C(NCc1cccnc1)/C(=C/n1cnc(-c2cc(C(F)(F)F)cc(C(F)(F)F)c2)n1)c1cncnc1 | – |
| 111 nM | CCONC(=O)/C(=C/n1cnc(-c2cc(C(F)(F)F)cc(C(F)(F)F)c2)n1)c1cncnc1 | – |
| 178 nM | O=C(NC1CC1)/C(=C/n1cnc(-c2cc(C(F)(F)F)cc(C(F)(F)F)c2)n1)c1cncnc1 | – |
| 346 nM | NC(=O)/C(=C/n1cnc(-c2cc(C(F)(F)F)cc(C(F)(F)F)c2)n1)c1ccccc1 | – |
| 1210 nM | NC(=O)/C(=C/n1ccc(-c2cc(C(F)(F)F)cc(C(F)(F)F)c2)n1)c1cncnc1 | – |
